According to patent US12534439B2, “Xanthohumol derivatives and methods for making and using” (Oregon State University, priority 2021, dated 2026):

Assays:
[1] = general statement on XN; cited from earlier work
[2] = test system: HepG2 cells; conditions: cited from earlier work
[3] = test system: C2Cl2 cells; conditions: cited from earlier work
[4] = test system: HepG2 cells; assay: MTT cell viability assay in HepG2 cells; assay type: cell-based, human; conditions: 24 hours
Procedure: (§1) To assess the toxicity of 4-(5-(4-hydroxyphenyl)-1-methyl-1h-pyrazol-3-yl)-5-methoxy-2-(3-methylbut-2-en-1-yl)benzene-1,3-diol (XP), in vitro cell viability assays were performed on several cell lines. HepG2, 3T3L1 and C2Cl2 cells were exposed to XP and cell viability was assessed using an MTT assay. At concentrations lower than 50 μM, XP had no effect on the viability of the human liver cancer cell lines HepG2 and murine myoblast cell lines C2Cl2 with respect to the control treatment (FIGS. 11A-11B). […] This establishes that XP is safe to use in vivo at dosages similar to xanthohumol.
(§2) Cell Viability Assays. Cells were seeded in 96-well plates 24 hours prior to adding the compound. HepG2 cells were seeded at a density of 5×10^4 cells/mL and C2Cl2 at 1×10^4 cells/mL in order to reach 80% confluency at the beginning of the experiment. After 24 hours, the culture medium was replaced with fresh medium containing various concentrations ranging between 0 and 200 μM of XP. The cells were incubated in the presence of the compound for 24 hours, at which time, the MTT viability assay was carried as previously described. MTT was dissolved at 0.5 mg/mL in serum-free Dulbecco's modified Eagle's medium, filter-sterilized and 100 μL was added to the cells. The cells were incubated for 3 hours and then acidified with 100% isopropanol for 15 minutes before absorbance reading at 570 nm on a BioTek Synergy HT plate reader.

[5] = test system: 3T3L1 cells; assay: MTT cell viability assay in differentiated 3T3L1 adipocytes; assay type: cell-based, murine
Procedure: as §1
as §2, with “MTT was dissolved at 0.5 mg/mL in serum-free Dulbecco's modified Eagle's medium, filter-sterilized and 100 μL was added to the cells.” left out

[6] = test system: HFD-fed C57BL/6J mice; assay: Follow-up study: XP given after 4 weeks of HFD pre-conditioning (Example 8); assay type: in vivo; conditions: for Decrease in weight gain, average: between weeks 9 and 12, versus HFD without compound
Description: This example concerns the effects of administering 4-(5-(4-hydroxyphenyl)-1-methyl-1H-pyrazol-3-yl)-5-methoxy-2-(3-methylbut-2-en-1-yl)benzene-1,3-diol to mice after a pre-conditioning phase of 4 weeks during which animals were fed a high-fat diet (HFD) or a low-fat diet (LFD). Forty 9-week old wild-type (WT) male C57BL/6J mice were obtained from Jackson Laboratory (Bar Harbor, ME, USA). The mice were housed in ventilated cages under a 12-12-hr light-dark cycle. Of the 40 mice, 32 were fed a HFD (Dyets Inc., Bethlehem, PA, USA) containing 60%, 20% and 20% total calories from fat, carbohydrate and protein, respectively. The remaining 8 mice were fed a LFD (Dyets Inc., Bethlehem, PA, USA), containing 11%, 70% and 19% total calories from fat, carbohydrate and protein, respectively. XP was first dissolved in a mixture of oleic acid:propylene glycol:Tween 80 (0.9:1:1 by weight) before the solution was mixed into the HFD at a concentration of 0.066% to reach a dose of 60 mg/kg body weight/day. After 4 weeks of HFD feeding, the XP-containing HFD was given to 16 of the 32 HFD-pretreated mice for 8 weeks. Sixteen mice in HFD-pretreatment group received a HFD control diet that contained an identical amount of the mixture of oleic acid:propylene glycol:Tween 80 (0.9:1:1 by weight). The LFD-fed mice were continued on the LFD diet. Food intake and body weights were recorded weekly. The mice were euthanized at week 12.

[7] = test system: LPS-activated RAW 264.7 cells; assay: Nitric oxide (NO) assay, Griess reagent; assay type: cell-based; conditions: LPS 1 μg/mL, 24 hours
Procedure: Nitric Oxide (NO) Assay. NO secreted by LPS-activated RAW 264.7 cells into the culture medium was determined as nitrite by the Griess reagent. RAW 264.7 1 cells obtained from the American Type Culture Collection (Manassas, VA, USA) were cultured in DMEM supplemented with 2 mM glutamine, antibiotics (100 U/mL penicillin and 100 μg/mL streptomycin), and 10% heat-inactivated fetal bovine serum. The cells were initially grown in 75 cm^2 culture flasks at 37° C. in a humidified incubator with 5% CO2. After reaching 80% confluency, the cells were split by seeding them on 96-well plates (0.2 mL/well) at a density of 1.5×10^5 cells/mL. After a 24-hour incubation at 37° C., the cells were treated with LPS (1 μg/mL) with or without test compounds in various concentrations. Vehicle control cells were treated with dimethyl sulfoxide alone at a final concentration of 0.1%. Culture media from control and treated cells were collected after 24 hours of incubation and were frozen at −80° C. before analysis. For the determination of NO (as […]), […], aliquots of the thawed culture media were mixed with an equal volume of Griess reagent on a 96-well plate. […] The samples were incubated for 10 minutes at room temperature and then the absorbance was read at 550 nm using a SpectraMax 190 (Molecular Devices, Sunnyvale, CA) plate reader.

[8] = test system: C2Cl2 cells; assay: MTT cell viability assay in C2Cl2 cells; assay type: cell-based, murine; conditions: 24 hours
Procedure: as §1
as §2, with “MTT was dissolved at 0.5 mg/mL in serum-free Dulbecco's modified Eagle's medium, filter-sterilized and 100 μL was added to the cells.” left out

[9] = listed as 4-(5-(4-hydroxyphenyl)-1-methyl-1H-pyrazol-3-yl)-5-methoxy-2-(3-methylbut-2-en-1)
[10] = listed as 4-(5-(4-hydroxyphenyl)-1-methyl-1h-pyrazol-3-yl)-5-methoxy-2-(3-methylbut-2-en-1)

Compound | Metabolism [1] | Cytotoxic concentration [2] | Cytotoxic concentration [3] | Concentration without effect on cell viability [4] | Concentration without effect on cell viability [4, 9] | Concentration without effect on cell viability [4, 10] | Concentration without effect on cell viability ([5]; 3T3L1, MTT) | Concentration at which dose-dependent reduction in cell viability occurred ([5]; differentiated 3T3L1 adipocytes, MTT) | Weight gain versus control HFD-fed mice ([6]; 60 mg/kg body weight/day in HFD for 8 weeks after 4 weeks HFD) | Decrease in weight gain, average [6] | Decrease in weight gain, average [6, 10] | Food intake versus control ([6]; mouse, in vivo) | Concentration from which anti-inflammatory activity (decreased NO production) was displayed [7] | Concentration without effect on cell viability [8] | Concentration without effect on cell viability [8, 9]
COc1cc(O)c(CC=C(C)C)c(O)c1C(=O)/C=C/c1ccc(O)cc1 [XN, xanthohumol] | subject to extensive phase 1 and phase 2 metabolism | above 25 μM | above 25 μM | – | – | – | – | – | – | – | – | – | – | – | –
COc1cc(O)c(CC=C(C)C)c(O)c1-c1cc(-c2ccc(O)cc2)n(C)n1 [XP, 4-(5-(4-hydroxyphenyl)-1-methyl-1H-pyrazol-3-yl)-5-methoxy-2-(3-methylbut-2-en-1-yl)benzene-1,3-diol] | – | – | – | lower than 50 μM | up to 25 μM | 1 to 50 µM | up to 5 μM | 10 µM | gained significantly less weight | about 5% | 5% | no difference | ≥ 10 µM | lower than 50 μM | up to 25 μM
